# US11395490B2, “Herbicidal composition” (SYNGENTA CROP PROTECTION, LLC, priority 2005, dated 2022)
# Key:
# Type in all cases: in vivo
# Conditions in all cases: 21 days after treatment
# [1] = test system: Euphorbia heterophylla (EPHHL); test: Post-emergence test, Euphorbia heterophylla
# Description: (§1) The herbicidal action to be expected, We, for a given combination of two herbicides can be calculated as follows (see COLBY, S. R. “Calculating synergistic and antagonistic response of herbicide combinations”. Weeds 15, pages 20-22; 1967): We=X+[Y·(100−X)/100] wherein: X=% herbicidal action in the case of treatment with active ingredient (A) using an application rate of p kg per hectare, in comparison with untreated control (=0%). Y=% herbicidal action in the case of treatment with active ingredient (B) using an application rate of q kg per hectare, in comparison with untreated control. We=expected herbicidal action (% herbicidal action in comparison with untreated control) after treatment with active ingredient (A) and active ingredient (B) at a rate of application of p+q kg of active ingredient per hectare. If the action actually observed is greater than the expected value We, there is a synergistic effect. Trial Description, Pre-Emergence Test: Monocotyledonous and dicotyledonous test plants are sown in standard soil in plastics pots. The plants tested were: Maize (ZEAMX), Ipomea purpurea (PHBPU), Euphorbia heterophylla (EPHHL), Panicum millenacearum (PANMI). Immediately after sowing, the test compounds in aqueous suspension are applied by spraying (200 litres of water/ha). (A) was formulated as a SC50, and (B1), (B2) and (B3) were formulated as WP25; 1% adjuvant crop oil concentrate (Agridex) (v/v) was added to all treatments. The compounds were applied alone and in combination as tank mixtures. The rates of application depend on the optimum concentrations determined under field conditions and greenhouse conditions. The test plants are then cultivated in a greenhouse under optimum conditions. Evaluation of the tests is made after 21 days (% action, 100%=plants have died, 0%=no phytotoxic action).
# (§2) Trial Description Post-Emergence Test: The test plants are raised in plastics pots under greenhouse conditions as far as the 2- to 3-leaf stage. A standard soil is used as the cultivation substrate. The plants tested were: Maize (ZEAMX), Ipomea purpurea (PHBPU), Sorghum vulgare (SORVU), Euphorbia heterophylla (EPHHL), Panicum millenacearum (PANMI). At the 2- to 3-leaf stage, the herbicides are applied individually and as mixtures to the test plants. The test compounds are applied in the form of an aqueous suspension in 200 litres of water/ha. (A) was formulated as a SC50, and (B1), (B2) and (B3) were formulated as WP25; 1% adjuvant crop oil concentrate (Agridex) (v/v) was added to all treatments. The compounds were applied alone and in combination as tank mixtures. The rates of application depend on the optimum concentrations determined under field conditions and greenhouse conditions. Evaluation of the tests is made after 21 days (% action, 100%=plants have died, 0%=no phytotoxic action).
# [2] = test system: Euphorbia heterophylla (EPHHL); test: Pre-emergence test, Euphorbia heterophylla
# Description: as §1
# Ipomea purpurea (PHBPU) [3] = test: Post-emergence test, Ipomea purpurea
# Description: as §1, §2
# Ipomea purpurea (PHBPU) [4] = test: Pre-emergence test, Ipomea purpurea
# Description: as §1
# [5] = test system: Panicum millenacearum (PANMI); test: Pre-emergence test, Panicum millenacearum
# Description: as §1
# Maize (ZEAMX) [6] = test: Post-emergence test, Maize
# Description: as §1, §2
# Maize (ZEAMX) [7] = test: Pre-emergence test, Maize
# Description: as §1
# Sorghum vulgare (SORVU) = test: Post-emergence test, Sorghum vulgare
# Description: as §1, §2
# [8] = test system: Panicum millenacearum (PANMI); test: Post-emergence test, Panicum millenacearum
# Description: as §1, §2
compound,measurement,setting,value
"COCCOCc1nc(C(F)(F)F)ccc1C(=O)C1C(=O)C2CCC(C2)C1=O (stereo not drawn) [(B1), 4-hydroxy-3-[[2-[(2-methoxyethoxy)methyl]-6-(trifluoromethyl)-3-pyridinyl]carbonyl]-bicyclo[3.2.1]oct-3-en-2-one]",Observed plant damage EPHHL,[1]; rate 18.75 g/ha,65%
same,Observed plant damage EPHHL,[1]; rate 37.5 g/ha,80%
same,Observed plant damage EPHHL,[1]; rate 75 g/ha,90%
same,Observed plant damage EPHHL,[1]; rate 150 g/ha,90%
same,Observed plant damage EPHHL,[1]; rate 300 g/ha,98%
same,Observed plant damage EPHHL,[2]; rate 18.75 g/ha,0%
same,Observed plant damage EPHHL,[2]; rate 37.5 g/ha,0%
same,Observed plant damage EPHHL,[2]; rate 75 g/ha,75%
same,Observed plant damage EPHHL,[2]; rate 150 g/ha,75%
same,Observed plant damage EPHHL,[2]; rate 300 g/ha,100%
same,Observed plant damage PHBPU,Ipomea purpurea (PHBPU) [3]; rate 18.75 g/ha,30%
same,Observed plant damage PHBPU,Ipomea purpurea (PHBPU) [3]; rate 37.5 g/ha,50%
same,Observed plant damage PHBPU,Ipomea purpurea (PHBPU) [3]; rate 75 g/ha,55%
same,Observed plant damage PHBPU,Ipomea purpurea (PHBPU) [3]; rate 150 g/ha,70%
same,Observed plant damage PHBPU,Ipomea purpurea (PHBPU) [3]; rate 300 g/ha,70%
same,Observed plant damage PHBPU,Ipomea purpurea (PHBPU) [4]; rate 18.75 g/ha,0%
same,Observed plant damage PHBPU,Ipomea purpurea (PHBPU) [4]; rate 37.5 g/ha,0%
same,Observed plant damage PHBPU,Ipomea purpurea (PHBPU) [4]; rate 75 g/ha,0%
same,Observed plant damage PHBPU,Ipomea purpurea (PHBPU) [4]; rate 150 g/ha,0%
same,Observed plant damage PHBPU,Ipomea purpurea (PHBPU) [4]; rate 300 g/ha,85%
same,Observed plant damage PANMI,[5]; rate 18.75 g/ha,15%
same,Observed plant damage PANMI,[5]; rate 37.5 g/ha,65%
same,Observed plant damage PANMI,[5]; rate 75 g/ha,80%
same,Observed plant damage PANMI,[5]; rate 150 g/ha,100%
same,Observed plant damage PANMI,[5]; rate 300 g/ha,100%
same,Observed plant damage ZEAMX,Maize (ZEAMX) [6]; rate 18.75 g/ha,0%
same,Observed plant damage ZEAMX,Maize (ZEAMX) [6]; rate 37.5 g/ha,0%
same,Observed plant damage ZEAMX,Maize (ZEAMX) [6]; rate 75 g/ha,0%
same,Observed plant damage ZEAMX,Maize (ZEAMX) [6]; rate 150 g/ha,0%
same,Observed plant damage ZEAMX,Maize (ZEAMX) [6]; rate 300 g/ha,0%
same,Observed plant damage ZEAMX,Maize (ZEAMX) [7]; rate 18.75 g/ha,0%
same,Observed plant damage ZEAMX,Maize (ZEAMX) [7]; rate 37.5 g/ha,0%
same,Observed plant damage ZEAMX,Maize (ZEAMX) [7]; rate 75 g/ha,0%
same,Observed plant damage ZEAMX,Maize (ZEAMX) [7]; rate 150 g/ha,0%
same,Observed plant damage ZEAMX,Maize (ZEAMX) [7]; rate 300 g/ha,0%
same,Observed plant damage SORVU,Sorghum vulgare (SORVU); rate 18.75 g/ha,0%
same,Observed plant damage SORVU,Sorghum vulgare (SORVU); rate 37.5 g/ha,0%
same,Observed plant damage SORVU,Sorghum vulgare (SORVU); rate 75 g/ha,0%
same,Observed plant damage SORVU,Sorghum vulgare (SORVU); rate 150 g/ha,10%
same,Observed plant damage SORVU,Sorghum vulgare (SORVU); rate 300 g/ha,35%
same,Observed plant damage PANMI,[8]; rate 18.75 g/ha,60%
same,Observed plant damage PANMI,[8]; rate 37.5 g/ha,70%
same,Observed plant damage PANMI,[8]; rate 75 g/ha,75%
same,Observed plant damage PANMI,[8]; rate 150 g/ha,70%
same,Observed plant damage PANMI,[8]; rate 300 g/ha,90%
"CS(=O)(=O)c1ccc(C(=O)C2C(=O)CCCC2=O)c(Cl)c1COCC(F)(F)F [(B2), tembotrione]",Observed plant damage EPHHL,[1]; rate 18.75 g/ha,65%
same,Observed plant damage EPHHL,[1]; rate 37.5 g/ha,75%
same,Observed plant damage EPHHL,[1]; rate 75 g/ha,80%
same,Observed plant damage EPHHL,[1]; rate 150 g/ha,98%
same,Observed plant damage EPHHL,[1]; rate 300 g/ha,100%
same,Observed plant damage EPHHL,[2]; rate 18.75 g/ha,0%
same,Observed plant damage EPHHL,[2]; rate 37.5 g/ha,0%
same,Observed plant damage EPHHL,[2]; rate 75 g/ha,0%
same,Observed plant damage EPHHL,[2]; rate 150 g/ha,100%
same,Observed plant damage EPHHL,[2]; rate 300 g/ha,100%
same,Observed plant damage PHBPU,Ipomea purpurea (PHBPU) [3]; rate 18.75 g/ha,0%
same,Observed plant damage PHBPU,Ipomea purpurea (PHBPU) [3]; rate 37.5 g/ha,25%
same,Observed plant damage PHBPU,Ipomea purpurea (PHBPU) [3]; rate 75 g/ha,55%
same,Observed plant damage PHBPU,Ipomea purpurea (PHBPU) [3]; rate 150 g/ha,60%
same,Observed plant damage PHBPU,Ipomea purpurea (PHBPU) [3]; rate 300 g/ha,60%
same,Observed plant damage PHBPU,Ipomea purpurea (PHBPU) [4]; rate 18.75 g/ha,0%
same,Observed plant damage PHBPU,Ipomea purpurea (PHBPU) [4]; rate 37.5 g/ha,0%
same,Observed plant damage PHBPU,Ipomea purpurea (PHBPU) [4]; rate 75 g/ha,0%
same,Observed plant damage PHBPU,Ipomea purpurea (PHBPU) [4]; rate 150 g/ha,20%
same,Observed plant damage PHBPU,Ipomea purpurea (PHBPU) [4]; rate 300 g/ha,75%
same,Observed plant damage PANMI,[5]; rate 18.75 g/ha,0%
same,Observed plant damage PANMI,[5]; rate 37.5 g/ha,0%
same,Observed plant damage PANMI,[5]; rate 75 g/ha,0%
same,Observed plant damage PANMI,[5]; rate 150 g/ha,40%
same,Observed plant damage PANMI,[5]; rate 300 g/ha,98%
same,Observed plant damage ZEAMX,Maize (ZEAMX) [6]; rate 18.75 g/ha,0%
same,Observed plant damage ZEAMX,Maize (ZEAMX) [6]; rate 37.5 g/ha,0%
same,Observed plant damage ZEAMX,Maize (ZEAMX) [6]; rate 75 g/ha,0%
same,Observed plant damage ZEAMX,Maize (ZEAMX) [6]; rate 150 g/ha,0%
same,Observed plant damage ZEAMX,Maize (ZEAMX) [6]; rate 300 g/ha,0%
same,Observed plant damage ZEAMX,Maize (ZEAMX) [7]; rate 18.75 g/ha,0%
same,Observed plant damage ZEAMX,Maize (ZEAMX) [7]; rate 37.5 g/ha,0%
same,Observed plant damage ZEAMX,Maize (ZEAMX) [7]; rate 75 g/ha,0%
same,Observed plant damage ZEAMX,Maize (ZEAMX) [7]; rate 150 g/ha,0%
same,Observed plant damage ZEAMX,Maize (ZEAMX) [7]; rate 300 g/ha,0%
same,Observed plant damage SORVU,Sorghum vulgare (SORVU); rate 18.75 g/ha,0%
same,Observed plant damage SORVU,Sorghum vulgare (SORVU); rate 37.5 g/ha,0%
same,Observed plant damage SORVU,Sorghum vulgare (SORVU); rate 75 g/ha,0%
same,Observed plant damage SORVU,Sorghum vulgare (SORVU); rate 150 g/ha,0%
same,Observed plant damage SORVU,Sorghum vulgare (SORVU); rate 300 g/ha,0%
same,Observed plant damage PANMI,[8]; rate 18.75 g/ha,0%
same,Observed plant damage PANMI,[8]; rate 37.5 g/ha,20%
same,Observed plant damage PANMI,[8]; rate 75 g/ha,20%
same,Observed plant damage PANMI,[8]; rate 150 g/ha,65%
same,Observed plant damage PANMI,[8]; rate 300 g/ha,50%
